{"source": "patent US20070232492A1", "about": "“Herbicidal Composition” (Ishihara Sangyo Kaisha, LTD., priority 2004, published 2007)", "key": {"[1]": {"system": "flatsedge (Cyperus serotinus)", "assay": "Growth inhibition of flatsedge (planted tubers) in paddy soil pots, application under submerged condition, visual rating and Colby expected value", "assay_type": "in vivo", "in_short": "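Tubers grown in flooded paddy soil (3.5 cm water); compounds, alone or mixed, diluted in water and applied submerged at about 2.5-4 leaf stage. Growth inhibition rated visually 21-30 days later (0% untreated to 100% kill); expected mixture values by Colby equation.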"}, "[2]": {"system": "barnyardgrass (Echinochloa oryzicola vasing)", "assay": "Growth inhibition of barnyardgrass in paddy soil pots, application under submerged condition, visual rating (observed value) and Colby expected value", "assay_type": "in vivo", "settings": "for inhibition at 100 g/ha / inhibition at 200 g/ha / inhibition at 150 g/ha / inhibition at 300 g/ha: Echinochloa oryzicola, soil, 504 h; for inhibition at 100 g/ha: 1 g/a; for inhibition at 100 g/ha / inhibition at 200 g/ha: read-out: Growth inhibition rate (%) Observed; for inhibition at 200 g/ha: 2 g/a; for inhibition at 150 g/ha: read-out: Growth inhibition rate (%) Observed, 1.5 g/a", "in_short": "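Barnyardgrass (Echinochloa oryzicola vasing) seeds were sown in paddy field soil in 1/10,000 are pots and kept irrigated at a water depth of 3.5 cm. Wettable powders of the active ingredients were diluted with water and applied under submerged conditions at the prescribed amounts. Growth was visually scored from 0% (as untreated) to 100% (complete kill), and expected values were calculated with Colby's formula.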"}, "[3]": {"settings": "2.0 to 2.5 leaf stage, 21 days after application"}, "[4]": {"settings": "2.8 to 3.2 leaf stage, 21 days after application, Test Examples 39-43"}}, "note": "Where two headings read alike, the source gives them in different places."}
{"smiles": "CCCOCCN(C(=O)CCl)c1c(CC)cccc1CC", "note": "[Compound (B3.1), pretilachlor]", "values": [{"measurement": "inhibition at 400 g/ha", "setting": "[1]; Cyperus serotinus, soil, 720 h, 4 g/a, 2.5 to 3.0 leaf stage, 30 days after application, Test Examples 46-60, read-out: Growth inhibition rate (%) Observed", "value": 20, "unit": "%"}, {"measurement": "inhibition at 100 g/ha", "setting": "[2]; [3]", "value": 17, "unit": "%"}, {"measurement": "inhibition at 100 g/ha", "setting": "[2]; [4]", "value": 0, "unit": "%"}, {"measurement": "inhibition at 200 g/ha", "setting": "[2]; [3]", "value": 33, "unit": "%"}, {"measurement": "inhibition at 200 g/ha", "setting": "[2]; [4]", "value": 0, "unit": "%"}]}
{"smiles": "CCS(=O)(=O)Oc1ccc2c(c1)C(C)(C)CO2", "note": "[Compound (B8.1), benfuresate]", "values": [{"measurement": "inhibition at 600 g/ha", "setting": "[1]; Cyperus serotinus, soil, 720 h, read-out: Growth inhibition rate (%) Observed", "value": 93, "unit": "%"}, {"measurement": "inhibition at 150 g/ha", "setting": "[2]; [3]", "value": 10, "unit": "%"}, {"measurement": "inhibition at 150 g/ha", "setting": "[2]; 3.0 to 3.3 leaf stage, 21 days after application", "value": 0, "unit": "%"}, {"measurement": "inhibition at 300 g/ha", "setting": "[2]; read-out: Growth inhibition rate (%) Observed, 3 g/a, 2.0 to 2.5 leaf stage, 21 days after application", "value": 33, "unit": "%"}, {"measurement": "inhibition at 300 g/ha", "setting": "[2]; read-out: Growth inhibition rate (%) Observed, 3.0 g/a, 3.0 to 3.3 leaf stage, 21 days after application", "value": 0, "unit": "%"}]}
{"smiles": "COCC(=O)OC(c1ncccc1S(=O)(=O)NC(=O)Nc1nc(OC)cc(OC)n1)C(C)F", "note": "(stereo not shown) [Compound A2, flucetosulfuron]", "values": [{"measurement": "Growth inhibition rate (%) Observed", "setting": "[1]; 0.0275 g/a, 2.8 to 3.2 leaf stage, 29 days after application", "value": 0, "unit": "%"}, {"measurement": "Growth inhibition rate (%) Observed", "setting": "[1]; 0.15 g/a, 2.5 to 3.0 leaf stage, 30 days after application, Test Examples 46-60", "value": 40, "unit": "%"}, {"measurement": "Growth inhibition rate (%) Observed", "setting": "[1]; 0.2 g/a, 4 leaf stage, 21 days after application", "value": 20, "unit": "%"}, {"measurement": "Growth inhibition rate (%) Observed", "setting": "[1]; 0.4 g/a, 4 leaf stage, 21 days after application", "value": 50, "unit": "%"}, {"measurement": "Growth inhibition rate (%) Observed", "setting": "[2]; 0.055 g/a, 2.8 to 3.2 leaf stage, 21 days after application", "value": 55, "unit": "%"}, {"measurement": "Growth inhibition rate (%) Observed", "setting": "[2]; 0.083 g/a, 2.1 to 3.2 leaf stage, 21 days after application", "value": 90, "unit": "%"}, {"measurement": "Growth inhibition rate (%) Observed", "setting": "[2]; 0.083 g/a, 2.1 to 3.2 leaf stage, 22 days after application", "value": 90, "unit": "%"}, {"measurement": "Growth inhibition rate (%) Observed", "setting": "[2]; 0.083 g/a, 2.5 to 3.0 leaf stage, 22 days after application", "value": 67, "unit": "%"}, {"measurement": "Growth inhibition rate (%) Observed", "setting": "[2]; 0.083 g/a, 2.8 to 3.2 leaf stage, 19 days after application, Test Examples 62-65", "value": 55, "unit": "%"}, {"measurement": "Growth inhibition rate (%) Observed", "setting": "[2]; 0.083 g/a, 2.8 to 3.2 leaf stage, 21 days after application", "value": 65, "unit": "%"}, {"measurement": "Growth inhibition rate (%) Observed", "setting": "[2]; 0.083 g/a, 2.8 to 3.2 leaf stage, 21 days after application, Test Examples 39-43", "value": 55, "unit": "%"}, {"measurement": "Growth inhibition rate (%) Observed", "setting": "[2]; 0.11 g/a, 2.0 to 2.5 leaf stage, 21 days after application", "value": 90, "unit": "%"}, {"measurement": "Growth inhibition rate (%) Observed", "setting": "[2]; 0.11 g/a, 2.1 to 3.2 leaf stage, 21 days after application", "value": 92, "unit": "%"}, {"measurement": "Growth inhibition rate (%) Observed", "setting": "[2]; 0.11 g/a, 2.1 to 3.2 leaf stage, 22 days after application", "value": 92, "unit": "%"}, {"measurement": "Growth inhibition rate (%) Observed", "setting": "[2]; 0.11 g/a, 2.4 to 3.2 leaf stage, 29 days after application, Test Example 45", "value": 96, "unit": "%"}, {"measurement": "Growth inhibition rate (%) Observed", "setting": "[2]; 0.11 g/a, 2.5 to 3.0 leaf stage, 22 days after application", "value": 83, "unit": "%"}, {"measurement": "Growth inhibition rate (%) Observed", "setting": "[2]; 0.11 g/a, 2.8 to 3.2 leaf stage, 19 days after application, Test Examples 62-65", "value": 68, "unit": "%"}, {"measurement": "Growth inhibition rate (%) Observed", "setting": "[2]; 0.11 g/a, 2.8 to 3.2 leaf stage, 21 days after application", "value": 75, "unit": "%"}, {"measurement": "Growth inhibition rate (%) Observed", "setting": "[2]; 0.11 g/a, 2.8 to 3.2 leaf stage, 21 days after application, Test Examples 39-43", "value": 70, "unit": "%"}, {"measurement": "Growth inhibition rate (%) Observed", "setting": "[2]; 0.165 g/a, 2.0 to 2.5 leaf stage, 21 days after application", "value": 90, "unit": "%"}, {"measurement": "Growth inhibition rate (%) Observed", "setting": "[2]; 0.165 g/a, 2.1 to 3.2 leaf stage, 21 days after application", "value": 96, "unit": "%"}, {"measurement": "Growth inhibition rate (%) Observed", "setting": "[2]; 0.165 g/a, 2.1 to 3.2 leaf stage, 22 days after application", "value": 96, "unit": "%"}, {"measurement": "Growth inhibition rate (%) Observed", "setting": "[2]; 0.165 g/a, 2.5 to 3.0 leaf stage, 22 days after application", "value": 89, "unit": "%"}, {"measurement": "Growth inhibition rate (%) Observed", "setting": "[2]; 0.165 g/a, 2.8 to 3.2 leaf stage, 19 days after application, Test Examples 62-65", "value": 73, "unit": "%"}, {"measurement": "Growth inhibition rate (%) Observed", "setting": "[2]; 8.3 g/ha, 3 leaf stage, 22 days after application, Test Example 36", "value": 67, "unit": "%"}, {"measurement": "Growth inhibition rate (%) Observed", "setting": "[2]; 8.3 g/ha, 3 leaf stage, 22 days after application, Test Example 38", "value": 83, "unit": "%"}, {"measurement": "Growth inhibition rate (%) Observed", "setting": "[2]; 11 g/ha, 3 leaf stage, 22 days after application, Test Example 36", "value": 83, "unit": "%"}, {"measurement": "Growth inhibition rate (%) Observed", "setting": "[2]; 11 g/ha, 3 leaf stage, 22 days after application, Test Example 38", "value": 96, "unit": "%"}, {"measurement": "Growth inhibition rate (%) Observed", "setting": "[2]; 16.5 g/ha, 3 leaf stage, 22 days after application, Test Example 36", "value": 89, "unit": "%"}, {"measurement": "Growth inhibition rate (%) Observed", "setting": "[2]; 16.5 g/ha, 3 leaf stage, 22 days after application, Test Example 38", "value": 98, "unit": "%"}]}
